We go through six compounds from ChEMBL document CHEMBL1129240, “Synthesis of acyclo-C-nucleosides in the imidazo[1,2-a]pyridine and pyrimidine series as antiviral agents” (J Med Chem, 1996).

In one series the test system is HeLa. Briefly: (§1) Cytotoxic concentration required to cause microscopically detectable alteration of normal cell morphology of HeLa cells. Type of series: cell-based. The settings on record: Homo sapiens.
The test system of the next series is Vero. Briefly: (§2) Cytotoxic concentration required to cause microscopically detectable alteration of normal cell morphology of Vero cells. It counts as cell-based. The conditions noted are these: Chlorocebus sabaeus.
Series [1] has as its system Cytomegalovirus. As to the kind of experiment: Minimum Inhibition Concentration (MIC) for activity against Cytomegalovirus (CMV) using AD169 strain. Type of series: functional. The conditions noted are these: Human betaherpesvirus 5.
Series [2] can be described thus: as §1. The settings on record: human, read-out: CC50. Type of series: cell-based.
For series [3], the system named is Cytomegalovirus. Briefly: Minimum Inhibition Concentration (MIC) for activity against Cytomegalovirus (CMV) using Davis strain. Type of series: functional. The conditions noted are these: Human betaherpesvirus 5.
Series [4] deals with Human alphaherpesvirus 3. Briefly: Minimum Inhibition Concentration (MIC) for activity against Varicella-Zoster Virus (VZV) using YS (TK+) strain. Type of series: functional.
Series [5] relates to Human alphaherpesvirus 3. As to the kind of experiment: Minimum Inhibition Concentration (MIC) for activity against Varicella-Zoster Virus(VZV) using OKA (TK+) strain. Type of series: functional.
Series [6] in a line: Cytotoxic concentration required to cause microscopically detectable alteration of normal cell morphology of E6SM cells. It counts as cell-based. The settings on record: human, read-out: CC50.
Series [7] is described as follows: Minimum cytotoxic concentration to reduce the HEL cell proliferation by 50%. It counts as cell-based. The settings on record: human, HEL cells; read-out: MCC.
Series [8] can be described thus: as §2. The settings on record: chlorocebus sabaeus, read-out: CC50. Type of series: cell-based.
Series [9] in a line: Cytotoxic concentration required to reduce CEM cell viability by 50%. Type of series: cell-based. The settings on record: human, CCRF-CEM (CEM) cells.
Series [10] relates to Human alphaherpesvirus 3. As to the kind of experiment: Minimum Inhibition Concentration (MIC) for activity against Varicella-Zoster Virus (VZV) using YS/R (TK-) strain. It counts as functional.
Series [11] relates to Human alphaherpesvirus 3. As to the kind of experiment: Minimum Inhibition Concentration (MIC) for activity against Varicella-Zoster Virus(VZV) using YS/R (TK-) strain. It counts as functional.
Series [12] relates to Cytomegalovirus. Briefly: Minimum Inhibitory Concentration (MIC) tested for activity against Cytomegalovirus (CMV) using AD169 strain. Type of series: functional. The conditions noted are these: Human betaherpesvirus 5.
A short description of series [13]: Minimum cytotoxic concentration required to reduce human embryonic lung (HEL) cell proliferation by 50%. The conditions noted are these: human embryonic lung (HEL) cells, read-out: MCC. Type of series: cell-based.
The subject of series [14] is Human alphaherpesvirus 3. As to the kind of experiment: Minimum Inhibition Concentration (MIC) for activity against Varicella-Zoster Virus(VZV) using YS(TK+) strain. Type of series: functional.
The subject of series [15] is Cytomegalovirus. As to the kind of experiment: Minimum Inhibitory Concentration (MIC) tested for activity against Cytomegalovirus (CMV) using Davis strain. It counts as functional. The settings on record: Human betaherpesvirus 5.
For series [16], the system named is Human alphaherpesvirus 3. As to the kind of experiment: Minimum Inhibitory Concentration (MIC) for activity against Varicella-Zoster Virus(VZV) using OKA (TK+) strain. It counts as functional.
Series [17] relates to Human alphaherpesvirus 3. Briefly: Minimum Inhibition Concentration( MIC) for activity against Varicella-Zoster Virus(VZV) using 07/1 (TK-) strain. Type of series: functional.
Series [18] concerns Human alphaherpesvirus 3. Briefly: Minimum Inhibition Concentration (MIC) for activity against Varicella-Zoster Virus(VZV) using YS/R (TK-) strain. It counts as functional.
Series [19] deals with Human alphaherpesvirus 3. As to the kind of experiment: Minimum Inhibitory Concentration (MIC) tested for activity against Varicella-Zoster Virus(VZV) using YS(TK+) strain. It counts as functional.
Series [20] relates to Human alphaherpesvirus 3. Briefly: Minimum Inhibition Concentration (MIC) for activity against Varicella-Zoster Virus(VZV) using 07/1 (TK-) strain. Type of series: functional.
Series [21] has as its system Human alphaherpesvirus 3. Briefly: Minimum Inhibition Concentration( MIC) for activity against Varicella-Zoster Virus(VZV) using YS/R (TK-) strain. Type of series: functional.
Series [22] deals with Human alphaherpesvirus 3. Briefly: Minimum Inhibition Concentration (MIC) for activity against Varicella-Zoster Virus(VZV) using YS(TK+) strain. It counts as functional.
The test system of series [23] is Human alphaherpesvirus 3. Briefly: Minimum Inhibition Concentration( MIC) for activity against Varicella-Zoster Virus(VZV) using YS(TK+) strain. It counts as functional.
In series [24] the test system is Cytomegalovirus. Briefly: Minimum Inhibition Concentration( MIC) for activity against Cytomegalovirus (CMV) using AD169 strain. Type of series: functional. The conditions noted are these: Human betaherpesvirus 5.

Values after ≈ are worked out from the molar mass of the structure shown.

Take `CCCCOc1ccc(S(=O)(=O)[C@@](C)(Cc2ccc(OCCN3CCCCC3)cc2)C(=O)NO)cc1`: the EC50 in the series on HeLa and in the series on Vero was > 400 µg/mL throughout.
Regarding `Cc1ccn2c(CSCc3ccccc3)cnc2c1`, the MIC came out at 3.5 µg/mL (≈ 13 µM) in the series with Cytomegalovirus [1]; 3.5 µg/mL (≈ 13 µM) against Cytomegalovirus [3]; 17 µg/mL (≈ 63.3 µM) in the series with Human alphaherpesvirus 3 [4]; 15 µg/mL (≈ 55.9 µM) with Human alphaherpesvirus 3 [5]; 10 µg/mL (≈ 37.3 µM) with Human alphaherpesvirus 3 [10]. Besides, the MCC in series [2] was 40 µg/mL; in series [6] it was 100 µg/mL; in [8] it was 40 µg/mL. Also, the results for the CC50 in series [7] and in series [9] were 45 µg/mL (≈ 168 µM) and 3.1 µg/mL (≈ 11.6 µM), respectively.
In the case of `OCCSCc1cnc2ccccn12`, the MCC in series [2] is 200 µg/mL; in series [6] it was 400 µg/mL; in series [8], 400 µg/mL. In addition, the MIC amounted to 25 µg/mL (≈ 120 µM) against Human alphaherpesvirus 3 [11]; 40 µg/mL (≈ 192 µM) in the series with Cytomegalovirus [12]; 25 µg/mL (≈ 120 µM) in the series on Human alphaherpesvirus 3 [14]; 35 µg/mL (≈ 168 µM) in the series with Cytomegalovirus [15]; 25 µg/mL (≈ 120 µM) against Human alphaherpesvirus 3 [16]. Besides, the values for the CC50 in [13] and in [9] were > 100 µg/mL and 29 µg/mL (≈ 139 µM), respectively.
Regarding `CCSCc1cnc2cc(C)ccn12`, the MCC in [2] came to 100 µg/mL; in series [6] it was 40 µg/mL; in series [8], 200 µg/mL. Also, the MIC in the series on Human alphaherpesvirus 3 [17] is > 10 µg/mL; against Human alphaherpesvirus 3 [18] it was > 10 µg/mL; against Cytomegalovirus [12], > 10 µg/mL; in the series with Human alphaherpesvirus 3 [19], > 10 µg/mL; against Cytomegalovirus [15] it was 10 µg/mL (≈ 48.5 µM); against Human alphaherpesvirus 3 [16], > 10 µg/mL. Moreover, the CC50 in series [7] amounted to 35 µg/mL (≈ 170 µM); in series [9] it was 11 µg/mL (≈ 53.3 µM).
Turning to `Cc1c(Br)cn2c(CSCc3ccccc3)cnc2c1Br`, the MIC was > 1 µg/mL in the series on Cytomegalovirus [1]; 2.3 µg/mL (≈ 5.4 µM) in the series with Human alphaherpesvirus 3 [20]; 2 µg/mL (≈ 4.69 µM) against Cytomegalovirus [3]; 2 µg/mL (≈ 4.69 µM) against Human alphaherpesvirus 3 [21]; 2.7 µg/mL (≈ 6.34 µM) in the series on Human alphaherpesvirus 3 [5]; 1.8 µg/mL (≈ 4.22 µM) in the series on Human alphaherpesvirus 3 [22]. Also, the MCC in [2], in series [6] and in series [8] was 40 µg/mL throughout. Also, the CC50 was determined as 30 µg/mL (≈ 70.4 µM) in [7] and 5 µg/mL (≈ 11.7 µM) in series [9].
Take `Cc1cccn2c(CSCc3ccccc3)cnc12`: the MCC in series [2] turned out to be 4 µg/mL; in series [6] it was 40 µg/mL; in series [8] it was 100 µg/mL. For the same compound, the MIC is 0.4 µg/mL (≈ 1.49 µM) with Human alphaherpesvirus 3 [20]; 0.2 µg/mL (≈ 0.745 µM) against Cytomegalovirus [3]; 0.9 µg/mL (≈ 3.35 µM) in the series on Human alphaherpesvirus 3 [5]; > 1 µg/mL against Human alphaherpesvirus 3 [18]; 0.3 µg/mL (≈ 1.12 µM) against Human alphaherpesvirus 3 [23]; 0.2 µg/mL (≈ 0.745 µM) in the series with Cytomegalovirus [24]. Also, the CC50 turned out to be 8 µg/mL (≈ 29.8 µM) in [7] and 0.5 µg/mL (≈ 1.86 µM) in series [9].
